Measured values: patent publication US20140058103A1, “Inhibitors of PI3K-Delta and Methods of Their Use and Manufacture” (Exelixis, Inc., priority 2010, published 2014)

What follows are compounds tested against PI3K delta (Homo sapiens, UniProt O00329) (assay: Luciferase-coupled chemiluminescence kinase assay (ATP consumption, KinaseGlo)).
Chain of PI3K delta (O00329 whole entry): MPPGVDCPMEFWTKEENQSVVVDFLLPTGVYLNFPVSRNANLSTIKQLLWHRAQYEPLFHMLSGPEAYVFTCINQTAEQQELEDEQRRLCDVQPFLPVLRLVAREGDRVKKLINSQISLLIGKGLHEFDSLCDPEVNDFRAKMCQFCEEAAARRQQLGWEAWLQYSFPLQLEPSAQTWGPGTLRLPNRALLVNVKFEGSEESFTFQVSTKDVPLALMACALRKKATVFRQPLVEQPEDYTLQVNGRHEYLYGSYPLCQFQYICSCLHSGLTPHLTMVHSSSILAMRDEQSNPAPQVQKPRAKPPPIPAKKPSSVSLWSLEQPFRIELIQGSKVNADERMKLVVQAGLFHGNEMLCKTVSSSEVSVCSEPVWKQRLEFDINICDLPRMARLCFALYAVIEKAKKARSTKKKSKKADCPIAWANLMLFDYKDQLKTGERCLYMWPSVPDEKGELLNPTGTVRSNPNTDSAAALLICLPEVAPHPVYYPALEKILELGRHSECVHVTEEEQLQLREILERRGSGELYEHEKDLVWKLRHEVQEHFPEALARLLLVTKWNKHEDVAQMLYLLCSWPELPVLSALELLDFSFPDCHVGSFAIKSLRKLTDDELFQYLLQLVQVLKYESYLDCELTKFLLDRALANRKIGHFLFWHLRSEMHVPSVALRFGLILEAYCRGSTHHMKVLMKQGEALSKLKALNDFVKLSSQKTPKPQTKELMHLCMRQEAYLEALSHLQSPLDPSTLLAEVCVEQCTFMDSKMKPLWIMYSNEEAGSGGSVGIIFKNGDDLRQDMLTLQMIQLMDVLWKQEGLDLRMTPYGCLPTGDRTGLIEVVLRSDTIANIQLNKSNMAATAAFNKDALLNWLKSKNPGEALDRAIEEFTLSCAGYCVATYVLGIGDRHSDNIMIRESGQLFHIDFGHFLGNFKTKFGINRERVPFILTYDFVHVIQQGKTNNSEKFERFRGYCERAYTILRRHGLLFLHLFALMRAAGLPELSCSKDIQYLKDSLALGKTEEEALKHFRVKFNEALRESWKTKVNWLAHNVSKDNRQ
Chain of PI3K delta (P27986 whole entry partner): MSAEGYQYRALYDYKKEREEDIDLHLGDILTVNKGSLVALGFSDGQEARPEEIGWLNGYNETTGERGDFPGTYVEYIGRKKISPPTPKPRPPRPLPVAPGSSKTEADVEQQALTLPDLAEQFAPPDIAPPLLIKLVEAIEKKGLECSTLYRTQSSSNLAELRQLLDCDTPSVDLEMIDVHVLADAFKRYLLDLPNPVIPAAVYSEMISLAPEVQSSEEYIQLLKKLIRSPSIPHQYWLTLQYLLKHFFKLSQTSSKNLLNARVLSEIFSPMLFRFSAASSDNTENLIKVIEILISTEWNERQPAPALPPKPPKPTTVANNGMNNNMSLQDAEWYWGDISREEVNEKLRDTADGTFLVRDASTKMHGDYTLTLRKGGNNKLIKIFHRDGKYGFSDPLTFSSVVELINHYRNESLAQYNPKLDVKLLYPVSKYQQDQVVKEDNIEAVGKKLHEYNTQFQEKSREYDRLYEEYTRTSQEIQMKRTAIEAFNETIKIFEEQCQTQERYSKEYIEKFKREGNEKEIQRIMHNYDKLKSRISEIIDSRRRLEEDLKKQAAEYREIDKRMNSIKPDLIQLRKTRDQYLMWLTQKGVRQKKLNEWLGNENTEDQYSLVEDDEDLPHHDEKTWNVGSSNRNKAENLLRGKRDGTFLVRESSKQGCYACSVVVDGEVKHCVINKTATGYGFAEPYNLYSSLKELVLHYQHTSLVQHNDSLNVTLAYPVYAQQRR
Assay type: biochemical
Method in brief: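 ATP consumption measured by KinaseGlo luciferase chemiluminescence after a 2 h reaction at ambient temperature, with ATP at or below the kinase KM. Ten inhibitor concentrations per curve; IC50 from four-parameter nonlinear regression.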
In the case of CCn1c(C(=O)NCC2CCC2)nc2c(N3CCC4(CC3)C(=O)Nc3ccccc34)ncnc21 [Compound 212, N-(cyclobutylmethyl)-9-ethyl-6-(2-oxo-1,2-dihydro-1′H-spiro[indole-3,4′-piperidin]-1′-yl)-9H-purine-8-carboxamide], the IC50 is reported as under 50 nM.
Work on Cc1c(-c2nc3c(N4CCC(n5c(=O)[nH]c6ncccc65)CC4)ncnc3n2C)cnn1C [Compound 331, 1-{1-[8-(1,5-dimethyl-1H-pyrazol-4-yl)-9-methyl-9H-purin-6-yl]piperidin-4-yl}-1,3-dihydro-2H-imidazo[4,5-b]pyridin-2-one] yielded an IC50 of under 50 nM.
CCn1c(C(=O)NC(C)C)nc2c(N3CCC4(CC3)C(=O)Nc3ccccc34)ncnc21 [Compound 223, 9-ethyl-N-(1-methylethyl)-6-(2-oxo-1,2-dihydro-1′H-spiro[indole-3,4′-piperidin]-1′-yl)-9H-purine-8-carboxamide] showed an IC50 of under 50 nM.
With Cn1c(C(=O)NC2CCC(F)(F)CC2)nc2c(N3CCC4(CC3)C(=O)Nc3ccccc34)ncnc21 [Compound 105, N-(4,4-difluorocyclohexyl)-9-methyl-6-(2-oxo-1,2-dihydro-1′H-spiro[indole-3,4′-piperidin]-1′-yl)-9H-purine-8-carboxamide] the IC50 was 50 to 250 nM.
CCn1c(C(=O)N2CCC(F)(F)C2)nc2c(N3CCC4(CC3)C(=O)Nc3ccccc34)ncnc21 [Compound 218, 1′-{8-[(3,3-difluoropyrrolidin-1-yl)carbonyl]-9-ethyl-9H-purin-6-yl}spiro[indole-3,4′-piperidin]-2(1H)-one] gave an IC50 of under 50 nM.
Work on CCn1c(C(=O)NCC2(O)CC2)nc2c(N3CCC(n4c(=O)[nH]c5ccccc54)CC3)ncnc21 [Compound 188, 9-ethyl-N-[(1-hydroxycyclopropyl)methyl]-6-[4-(2-oxo-2,3-dihydro-1H-benzimidazol-1-yl)piperidin-1-yl]-9H-purine-8-carboxamide] yielded an IC50 of under 50 nM.
With CCn1c(-c2ccc(C(F)(F)F)nc2)nc2c(N3CCC(n4c(=O)[nH]c5ccccc54)CC3)ncnc21 [Compound 314, 1-(1-{9-ethyl-8-[6-(trifluoromethyl)pyridin-3-yl]-9H-purin-6-yl}piperidin-4-yl)-1,3-dihydro-2H-benzimidazol-2-one] the IC50 was under 50 nM.
Cn1c(-n2cnc3ccccc32)nc2c(N3CCC(n4c(=O)[nH]c5ccccc54)CC3)ncnc21 [Compound 259, 1-{1-[8-(1H-benzimidazol-1-yl)-9-methyl-9H-purin-6-yl]piperidin-4-yl}-1,3-dihydro-2H-benzimidazol-2-one] showed an IC50 of under 50 nM.
Work on Cn1c(C(=O)NCC2CCOCC2)nc2c(N3CCC(n4c(=O)[nH]c5ccccc54)CC3)ncnc21 [Compound 5, 9-methyl-6-[4-(2-oxo-2,3-dihydro-1H-benzimidazol-1-yl)piperidin-1-yl]-N-(tetrahydro-2H-pyran-4-ylmethyl)-9H-purine-8-carboxamide] yielded an IC50 of under 50 nM.
Work on Cn1c(-c2ccc(C(F)(F)F)nc2)nc2c(N3CCC(n4c(=O)[nH]c5ccccc54)CC3)ncnc21 [Compound 279, 1-(1-{9-methyl-8-[6-(trifluoromethyl)pyridin-3-yl]-9H-purin-6-yl}piperidin-4-yl)-1,3-dihydro-2H-benzimidazol-2-one] yielded an IC50 of under 50 nM.
In the case of Cn1c(C(=O)NCC(C)(C)C)nc2c(N3CCC4(CC3)C(=O)Nc3ccccc34)ncnc21 [Compound 96, N-(2,2-dimethylpropyl)-9-methyl-6-(2-oxo-1,2-dihydro-1′H-spiro[indole-3,4′-piperidin]-1′-yl)-9H-purine-8-carboxamide], the IC50 is reported as 50 to 250 nM.
CCCCNC(=O)c1nc2c(N3CCC4(CC3)C(=O)Nc3ccccc34)ncnc2n1C [Compound 16, N-butyl-9-methyl-6-(2-oxo-1,2-dihydro-1′H-spiro[indole-3,4′-piperidin]-1′-yl)-9H-purine-8-carboxamide] gave an IC50 of 50 to 250 nM.
Work on CCn1c(-c2cnn(C)c2C)nc2c(N3CCC4(CC3)C(=O)Nc3ccccc34)ncnc21 [Compound 261, 1′-[8-(1,5-dimethyl-1H-pyrazol-4-yl)-9-ethyl-9H-purin-6-yl]spiro[indole-3,4′-piperidin]-2(1H)-one] yielded an IC50 of under 50 nM.
Compound CCn1cc(-c2nc3c(N4CCC(n5c(=O)[nH]c6ccccc65)CC4)ncnc3n2C)cn1 [Compound 146, 1-{1-[8-(1-Ethyl-1H-pyrazol-4-yl)-9-methyl-9H-purin-6-yl]piperidin-4-yl}-1,3-dihydro-2H-benzimidazol-2-one] has an IC50 of under 50 nM.
For CC(C)CCNC(=O)c1nc2c(N3CCC4(CC3)C(=O)Nc3ccccc34)ncnc2n1C [Compound 40, 9-methyl-N-(3-methylbutyl)-6-(2-oxo-1,2-dihydro-1′H-spiro[indole-3,4′-piperidin]-1′-yl)-9H-purine-8-carboxamide], the IC50 was 50 to 250 nM.
With CC(C)CNC(=O)c1nc2c(N3CCC(n4c(=O)[nH]c5ccccc54)CC3)ncnc2n1CC(F)(F)F [Compound 183, N-(2-methylpropyl)-6-[4-(2-oxo-2,3-dihydro-1H-benzimidazol-1-yl)piperidin-1-yl]-9-(2,2,2-trifluoroethyl)-9H-purine-8-carboxamide] the IC50 was 250 to 500 nM.
Compound CCn1c(C(=O)NCC2CC2)nc2c(N3CCC4(CC3)C(=O)Nc3ccccc34)ncnc21 [Compound 163, N-(cyclopropylmethyl)-9-ethyl-6-(2-oxo-1,2-dihydro-1′H-spiro[indole-3,4′-piperidin]-1′-yl)-9H-purine-8-carboxamide] has an IC50 of under 50 nM.
With CCn1cc(-c2nc3c(N4CCC(n5c(=O)[nH]c6c(F)cccc65)CC4)ncnc3n2C)cn1 [Compound 344, 1-{1-[8-(1-ethyl-1H-pyrazol-4-yl)-9-methyl-9H-purin-6-yl]piperidin-4-yl}-4-fluoro-1,3-dihydro-2H-benzimidazol-2-one] the IC50 was under 50 nM.
For CCn1cc(-c2nc3c(N4CCN(c5ccccc5)CC4)ncnc3n2C)cn1 [Compound 368, 8-(1-ethyl-1H-pyrazol-4-yl)-9-methyl-6-(4-phenylpiperazin-1-yl)-9H-purine], the IC50 was 500 to 1500 nM.
Work on Cc1nnc(-c2nc3c(N4CCC(n5c(=O)[nH]c6ccccc65)CC4)ncnc3n2C)n1C [Compound 332, 1-{1-[8-(4,5-dimethyl-4H-1,2,4-triazol-3-yl)-9-methyl-9H-purin-6-yl]piperidin-4-yl}-1,3-dihydro-2H-benzimidazol-2-one] yielded an IC50 of 50 to 250 nM.
In the case of CCn1c(C(=O)N[C@H]2CC[C@H](O)CC2)nc2c(N3CCC4(CC3)C(=O)Nc3ccccc34)ncnc21 [Compound 159, 9-ethyl-N-(trans-4-hydroxycyclohexyl)-6-(2-oxo-1,2-dihydro-1′H-spiro[indole-3,4′-piperidin]-1′-yl)-9H-purine-8-carboxamide], the IC50 is reported as under 50 nM.
Cn1c(C(=O)OCC2CC2)nc2c(N3CCC(n4c(=O)[nH]c5ccccc54)CC3)ncnc21 [Compound 79, Cyclopropylmethyl 9-methyl-6-[4-(2-oxo-2,3-dihydro-1H-benzimidazol-1-yl)piperidin-1-yl]-9H-purine-8-carboxylate] gave an IC50 of 50 to 250 nM.
Compound CCn1c(-c2cccnc2)nc2c(N3CCC(n4c(=O)[nH]c5ccccc54)CC3)ncnc21 [Compound 296, 1-[1-(9-ethyl-8-pyridin-3-yl-9H-purin-6-yl)piperidin-4-yl]-1,3-dihydro-2H-benzimidazol-2-one] has an IC50 of under 50 nM.
In the case of Cc1ccccc1CNC(=O)c1nc2c(N3CCC(n4c(=O)[nH]c5ccccc54)CC3)ncnc2n1C [Compound 57, 9-methyl-N-[(2-methylphenyl)methyl]-6-[4-(2-oxo-2,3-dihydro-1H-benzimidazol-1-yl)piperidin-1-yl]-9H-purine-8-carboxamide], the IC50 is reported as 250 to 500 nM.
In the case of Cn1c(C(=O)NCC2CC2)nc2c(N3CCC(n4ccc5ccccc54)CC3)ncnc21 [Compound 121, N-(cyclopropylmethyl)-6-[4-(1H-indol-1-yl)piperidin-1-yl]-9-methyl-9H-purine-8-carboxamide], the IC50 is reported as 500 to 1500 nM.
For CCCC(=O)c1nc2c(N3CCC(n4c(=O)[nH]c5ccccc54)CC3)ncnc2n1C [Compound 113, 1-[1-(8-butanoyl-9-methyl-9H-purin-6-yl)piperidin-4-yl]-1,3-dihydro-2H-benzimidazol-2-one], the IC50 was 50 to 250 nM.
Compound Cn1c(-c2cnco2)nc2c(N3CCC(n4c(=O)[nH]c5ccccc54)CC3)ncnc21 [Compound 135, 1-{1-[9-methyl-8-(1,3-oxazol-5-yl)-9H-purin-6-yl]piperidin-4-yl}-1,3-dihydro-2H-benzimidazol-2-one] has an IC50 of 50 to 250 nM.
For Cn1c(C(=O)NCC2CC2)nc2c(N3CC=C(n4c(=O)[nH]c5ccccc54)CC3)ncnc21 [Compound 289, N-(cyclopropylmethyl)-9-methyl-6-[4-(2-oxo-2,3-dihydro-1H-benzimidazol-1-yl)-3,6-dihydropyridin-1(2H)-yl]-9H-purine-8-carboxamide], the IC50 was 50 to 250 nM.
Cn1cc(-c2nc3c(N4CCN(S(=O)(=O)c5ccc(F)cc5)CC4)ncnc3n2C)cn1 [Compound 372, 6-{4-[(4-fluorophenyl)sulfonyl]piperazin-1-yl}-9-methyl-8-(1-methyl-1H-pyrazol-4-yl)-9H-purine] showed an IC50 of 500 to 1500 nM.
CC(=O)c1nc2c(N3CCC(n4c(=O)[nH]c5ccccc54)CC3)ncnc2n1C [Compound 95, 1-[1-(8-Acetyl-9-methyl-9H-purin-6-yl)piperidin-4-yl]-1,3-dihydro-2H-benzimidazol-2-one] showed an IC50 of 250 to 500 nM.
For Cn1ncc(-c2nc3c(N4CCC(n5c(=O)[nH]c6ccccc65)CC4)ncnc3n2C)c1Cl [Compound 272, 1-{1-[8-(5-chloro-1-methyl-1H-pyrazol-4-yl)-9-methyl-9H-purin-6-yl]piperidin-4-yl}-1,3-dihydro-2H-benzimidazol-2-one], the IC50 was under 50 nM.
In the case of Cn1c(-c2cnc3[nH]ccc3c2)nc2c(N3CCC(n4c(=O)[nH]c5ccccc54)CC3)ncnc21 [Compound 302, 1-{1-[9-methyl-8-(1H-pyrrolo[2,3-b]pyridin-5-yl)-9H-purin-6-yl]piperidin-4-yl}-1,3-dihydro-2H-benzimidazol-2-one], the IC50 is reported as under 50 nM.
CCn1c(C(=O)N2CC(F)(F)C2)nc2c(N3CCC(n4c(=O)[nH]c5ccccc54)CC3)ncnc21 [Compound 189, 1-(1-{8[(3,3-difluoroazetidin-1-yl)carbonyl]-9-ethyl-9H-purin-6-yl}piperidin-4-yl)-1,3-dihydro-2H-benzimidazol-2-one] gave an IC50 of under 50 nM.
